Reference: article PMC10160035, “Mechanism-based and computational modeling of hydrogen sulfide biogenesis inhibition: interfacial inhibition” (Scientific Reports, 2023)
Blank lines part the entries; values can stand above or below the molecule they belong to.

Assays:
CSE = conditions: cited from earlier work
[1] = target: T1, recombinant human CSE (cystathionine γ-lyase), tag-less (Homo sapiens, UniProt P32929); assay: D-penicillamine binding followed by PLP fluorescence quenching; conditions: PLP fluorescence at 495 nm, 100 mM HEPES pH 7.4, 20 °C, n = 3 ± SD; read-out: Kd (dissociation constant between tag-less CSE and D-pen)
T1 construct: 6xHis (TEV-cleavable) (N, cleaved yes); made in house; host or cells: E. coli One Shot BL-21 Star (DE3)
Method: The addition of D-pen induced a quenching of fluorescence. […] The black line represents the fit to the experimental data with a four-parameter logistic equation to obtain the dissociation binding constant of D-pen for CSE.
Fluorescence emission spectra were recorded 5 min after D-pen addition.

[2] = target: T2, human CSE (cystathionine γ-lyase) (Homo sapiens, UniProt P32929); assay: biochemical
[3] = tested on: homogenated mouse aorta samples; design: method as in Brancaleone et al. (34); conditions: ref Brancaleone et al. (34), read-out: IC50 ex cellulo; cited from earlier work
[4] = target: T2, human CSE (cystathionine γ-lyase); assay: lead acetate assay of H2S production from cysteine; format: biochemical; design: 6xHis (TEV-cleavable) (N, cleaved yes); made in house; host or cells: E. coli One Shot BL-21 Star (DE3)
Method: Production of H2S from cysteine by CSE was measured spectrophotometrically by the lead acetate assay as previously described. […] Then, the formation of lead sulfide resulting from the reactivity of H2S with lead acetate was continuously monitored at 390 nm. The half inhibitory concentration (IC50) value was obtained by plotting the relative activity of CSE (A, in per cent) as a function of the concentration of D-pen and by fitting the data with Eq. (4), where ∆A is the maximal effect of D-pen on the activity of CSE and n is the Hillslope that characterizes the slope of the curve at its midpoint.4 A=ΔA/1+[D-Pen]/IC50^n
Next, 40 μg of CSE was added to the assay mixture to initiate the reaction, which was followed at 390 nm. The molar extinction coefficient for lead sulfide previously determined was then used to obtain vH2S[24]. The CSE-D-penicillamine dissociation constants for competitive and uncompetitive inhibition were calculated by plotting vH2S as a function of cysteine concentration and using Eq. (5).5 vH2S=Vmax×[Cys]/KM×1+[D-Pen]/Kic+[Cys]×1+[D-Pen]/Kiu

[5] = tested on: recombinant CSE (GST-CSE); conditions: 1 mM Cys, methylene blue assay, 10 min pre-incubation with CSE; read-out: IC50 towards H2S production; cited from earlier work
[6] = target: T2, human CSE (cystathionine γ-lyase)
[7] = target: the molecule itself; assay: SEC; HiLoad 16/600 Superdex 200, 0.5 mL/min, 100 mM HEPES pH 7.4, 150 mM NaCl; oligomeric state from the estimated apparent molecular mass

T2 sequence (P32929 whole entry): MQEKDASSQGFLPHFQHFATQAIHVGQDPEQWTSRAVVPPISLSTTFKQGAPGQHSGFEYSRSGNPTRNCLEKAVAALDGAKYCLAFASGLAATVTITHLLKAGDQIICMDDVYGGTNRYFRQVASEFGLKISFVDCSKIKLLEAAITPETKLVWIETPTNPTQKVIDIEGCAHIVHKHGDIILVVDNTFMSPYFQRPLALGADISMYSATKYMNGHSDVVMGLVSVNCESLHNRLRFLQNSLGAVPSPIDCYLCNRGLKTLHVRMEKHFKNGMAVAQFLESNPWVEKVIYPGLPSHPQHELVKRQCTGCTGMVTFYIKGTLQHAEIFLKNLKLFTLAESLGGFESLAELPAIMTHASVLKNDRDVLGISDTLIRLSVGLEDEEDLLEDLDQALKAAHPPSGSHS
T1 sequence (P32929 whole entry): as above

Molecule: C#CCNC(=O)[C@@H]1CSC(=O)N1 [(R)-2-oxo-N-(prop-2-yn-1-yl)thiazolidine-4-carboxamide]
inhibitory mode towards CSE (CSE): substrate inhibitors

Kd [1]: 15000 ± 4600 µM | Ki [2]: 2540 ± 650 µM | IC50 ([4]; 1 mM Cys, 200 mM HEPES pH 7.4, 37 °C, no pre-incubation with enzyme, read-out: IC50 towards H2S production): 2040 ± 130 µM | Kiu (dissociation constant for uncompetitive inhibition), H2S biogenesis from Cys ([4]; 1–10 mM cysteine, 100 mM HEPES pH 7.4, 37 °C): 8.60 ± 1.22 mM | Ki ([4]; 1–10 mM cysteine, 100 mM HEPES pH 7.4, 37 °C, read-out: Kic (dissociation constant for competitive inhibition), H2S biogenesis from Cys): 1820 ± 350 µM | mode of inhibition of H2S biogenesis ([4]; Lineweaver–Burk analysis, varying Cys): mixed inhibition mechanism | effect of pre-incubation time on inhibition potency ([4]; inhibition followed as a function of pre-incubating time): not a slow-binding inhibitor | Kiu (uncompetitive inhibition), α,γ-elimination of cystathionine ([6]; 0.1–3 mM cystathionine, 100 mM HEPES pH 7.4, 37 °C): 8.55 ± 0.89 mM | mode of inhibition of cystathionine cleavage ([6]; Lineweaver–Burk analysis): mixed inhibition mechanism
Molecule: CC(C)(S)[C@@H](N)C(=O)O [D-pen, D-penicillamine]
IC50 [3]: 44 µM | IC50 [5]: 270 µM

Molecule: N[C@@H](CSCCCC(=O)O)C(=O)O [S-3-carboxypropyl-L-cysteine]
inhibitory mode towards CSE (CSE): suicide inhibitors

Molecule: NCCO/C=C/[C@H](N)C(=O)O [aminoethoxyvinyglycine]
inhibitory mode towards CSE (CSE): slow and tight binding inhibitor

Molecule: O=C(O)C1=CC(=C(c2ccc(O)c(C(=O)O)c2)c2ccc(O)c(C(=O)O)c2)C=CC1=O [aurintricarboxylic acid]
inhibitory mode towards CSE (CSE): competitive cofactor

Molecule: C#CCC(N)C(=O)O (stereo not shown) [propargylglycine]
inhibitory mode towards CSE (CSE): suicide inhibitors

Molecule: N[C@H](C(=O)O)C(F)(F)F [trifluoroalanine]
inhibitory mode towards CSE (CSE): suicide inhibitors

B1: human recombinant cystathionine γ-lyase with N-terminal 6xHis-tag (enzyme)
chain: MQEKDASSQGFLPHFQHFATQAIHVGQDPEQWTSRAVVPPISLSTTFKQGAPGQHSGFEYSRSGNPTRNCLEKAVAALDGAKYCLAFASGLAATVTITHLLKAGDQIICMDDVYGGTNRYFRQVASEFGLKISFVDCSKIKLLEAAITPETKLVWIETPTNPTQKVIDIEGCAHIVHKHGDIILVVDNTFMSPYFQRPLALGADISMYSATKYMNGHSDVVMGLVSVNCESLHNRLRFLQNSLGAVPSPIDCYLCNRGLKTLHVRMEKHFKNGMAVAQFLESNPWVEKVIYPGLPSHPQHELVKRQCTGCTGMVTFYIKGTLQHAEIFLKNLKLFTLAESLGGFESLAELPAIMTHASVLKNDRDVLGISDTLIRLSVGLEDEEDLLEDLDQALKAAHPPSG
modifications: pyridoxal 5'-phosphate as internal aldimine with Lys212
notes: cystathionine γ-lyase (CSE), human; also called CSE; hCSE; source: E. coli One Shot BL-21 Star (DE3), purified (His-Trap HP, HiLoad 16/600 Superdex 200); not shown: His6, N-terminal, kept
stoichiometry N [7]: 4

B2: tag-less human recombinant cystathionine γ-lyase (enzyme)
chain: B1 chain
modifications: pyridoxal 5'-phosphate as internal aldimine with Lys212
notes: cystathionine γ-lyase (CSE), human; tag removed with TEV protease; also called tag-less CSE; CSE; not shown: His6, N-terminal, cleaved
stoichiometry N [7]: 4
